Measured values as given in US20080021002A1, “VITAMIN D COMPOUNDS USED TO STABILIZE KIDNEY TRANSPLANTS” (priority 2000, published 2008).

Key:
[1] = Effect of calcitriol on CsA and FK506 serum levels and dosages in transplant patients; assay type: in vivo, human
Description: Methodology-retrospective analysis: The University of Wisconsin transplant database was screened to identify any kidney and/or kidney-pancreas transplant recipient who received 1,25-dihydroxyvitamin D3 (calcitriol)peri-post-transplant. Clinical and demographic variables were abstracted from the database. Those patients with adequate follow-up data were included in the analysis (≧1year follow-up data following the initiation of calcitriol). Demographic variables included race, age, and nay history of parathyroidectomy as these patients would likely be receiving calcitriol at time of transplantation. The effect of calcitriol treatment on renal function was analyzed using general linear mixed modeling of the change in slope of renal function prior to and following the start of calcitriol therapy. […] Adverse events and hypercalcemia were noted by identifiers in the database and by serum calcium levels as recorded in the database. Hypercalcemia was defined as a serum calcium >10.5 mg/dl. […] Both of these agents have beneficial effects in prolonging allograft function by altering the ability for activated T cells to produce interleukin-2 (IL-2). However, both of these agents are also associated with drug-related nephrotoxicity that is manifested by characteristic histologic changes in the allograft, e.g. tubulointerstitial fibrosis, and loss of allograft function long-term.

[2] = tested on: kidney or kidney-pancreas transplant recipients; assay: Retrospective analysis of renal function (serial serum creatinine) in calcitriol-treated transplant patients; assay type: in vivo, human
Description: Methodology-retrospective analysis: The University of Wisconsin transplant database was screened to identify any kidney and/or kidney-pancreas transplant recipient who received 1,25-dihydroxyvitamin D3 (calcitriol)peri-post-transplant. Clinical and demographic variables were abstracted from the database. Those patients with adequate follow-up data were included in the analysis (≧1year follow-up data following the initiation of calcitriol). Demographic variables included race, age, and nay history of parathyroidectomy as these patients would likely be receiving calcitriol at time of transplantation. The effect of calcitriol treatment on renal function was analyzed using general linear mixed modeling of the change in slope of renal function prior to and following the start of calcitriol therapy. […] Adverse events and hypercalcemia were noted by identifiers in the database and by serum calcium levels as recorded in the database. Hypercalcemia was defined as a serum calcium >10.5 mg/dl. Data assessment—Demographics: Calcitriol-treatment patients were divided into: Group 1: patients who initiated calcitriol therapy<one year following transplantation, Group 2: patients who remained on or initiated calcitriol therapy within two weeks of transplantation, Data assessment—outcomes for Group 1 patients: Renal function was determined by assessing serial serum creatinine values. This serum measure is a standard and accepted measure of renal function. The start of calcitriol therapy was defined as day 0. Time prior to initiation of calcitriol therapy was designated by a negative value. Mean serum creatinine levels appeared to increase in Group 1 patients (indicative of declining renal function) until the time of calcitriol therapy was initiated (Table 3).

Smad 6 protein = assay: Western blot of renal graft lysates, Smad 6 protein; assay type: in vivo, rat; settings: allograft recipients vs allogeneic untreated control group
Description: Renal lysates were subjected to SDS-PAGE and transferred to nitrocellulose membranes. The membranes were probed with specific anti-Smad antibodies and appropriated HRP-conjugated secondary antibodies. Signal was detected with chemilumensnce. Following exposure, x-ray films were scanned and the amount of expression compared to that of tubulin as an internal control using Scion Image software. FIG. 4 (A) describes R-Smad expression. FIG. 4 (B) described I-Smad expression.
Western Blot Analysis: A portion of the snap frozen graft containing both cortex and medulla was ground with a mortar and pestle. For each 100 mg of tissue, the sample was resuspened in 400 ul of lysis buffer (10 mM Tris base, 150 mM NaCl, pH 8.0) containing protease inhibitors (P2714 1:1000. Sigma Chemical Co., St. Louis, Mo.) and homogenized (PowerGen 125, 1 minute). Triton X100 was then added to 1% and the sample place on ice, for 30 minutes. The solubilized sample was then spun at 4° C. for 15 minutes at 15,000×G. The supernatant was collected and stored at −80° C. Sample protein concentrations were determined using the Micro BCA assay (Pierce Chemical Co., Rockford, Ill.) according to manufacturer=s instructions, except that the assay was performed in half area plates combining 35 μl sample with 70 µl of reagent. […]

SMILES: C=C1/C(=C\C=C2/CCC[C@]3(C)[C@@H]([C@H](C)CCCC(C)(C)O)CC[C@@H]23)C[C@@H](O)C[C@@H]1O [calcitriol, 1,25-dihydroxyvitamin D3]
- Effect on CsA or FK506 dosages or serum drug levels ([1]; combined analysis of all Group 1 and Group 2 patients): no significant effect
- Trends in mean CsA levels or variability in CsA levels ([1]; seven of the 26 Group 1 patients with serial CsA levels): No trends
- Graft failures (loss of the transplant) ([2]; Group 1 (26 patients)): six
- Serum creatinine levels following initiation of therapy ([2]; Group 1 patients): stabilized
- Mean serum creatinine ([2]; Group 1 patients, day 100 after start of calcitriol therapy): 2.54 mg/dL
- Mean serum creatinine ([2]; Group 1 patients, day 200 after start of calcitriol therapy): 2.44 mg/dL
- Mean serum creatinine ([2]; Group 1 patients, day 300 after start of calcitriol therapy): 2.50 mg/dL
- Mean serum creatinine ([2]; Group 1 patients, day 400 after start of calcitriol therapy): 2.27 mg/dL
- Mean serum creatinine ([2]; Group 1 patients, day 500 after start of calcitriol therapy): 2.37 mg/dL
- Creatinine trend (slope) after 300 days of therapy ([2]; Group 1 patients, repeated measures analysis of slopes): creatinine was decreasing evidenced by a negative slope
- Difference (change in slope of serum creatinine over time) ([2]; Group 1 patients, treatment day +100, negative = decreasing slope, improved renal function): −0.0050
- Difference (change in slope of serum creatinine over time) ([2]; Group 1 patients, treatment day +200): −0.0046
- Difference (change in slope of serum creatinine over time) ([2]; Group 1 patients, treatment day +300): −0.0080
- Difference (change in slope of serum creatinine over time) ([2]; Group 1 patients, treatment day +400): −0.0085
- Difference (change in slope of serum creatinine over time) ([2]; Group 1 patients, treatment day +500): −0.0078
- Graft failures ([2]; Group 2 (22 patients)): two
- Analysis of interval slopes of serum creatinine ([2]; Group 2 patients): no interview slopes significantly different from 0
- Mean serum creatinine ([2]; Group 2 patients (table title prints Group 1), day 100 of calcitriol): 1.61 mg/dL
- Mean serum creatinine ([2]; Group 2 patients (table title prints Group 1), day 200 of calcitriol): 1.79 mg/dL
- Mean serum creatinine ([2]; Group 2 patients (table title prints Group 1), day 300 of calcitriol): 1.70 mg/dL
- Mean serum creatinine ([2]; Group 2 patients (table title prints Group 1), day 400 of calcitriol): 1.62 mg/dL
- Mean serum creatinine ([2]; Group 2 patients (table title prints Group 1), day 500 of calcitriol): 1.82 mg/dL
- Mean serum creatinine levels over time ([2]; Group 2 patients, first 600 days following initiation of calcitriol): remained stable
- Smad 6 protein expression (Smad 6 protein): decreased
